What was measured:
HEK293 cells = test: HDAd-LacZ infection with corticosteroid, X-Gal staining for LacZ expression in HEK293 cells; assay type: cell-based; conditions: dose range of corticosteroid with HDAd-LacZ
Method: Methods: 116 cells or HEK293 cells were seeded in 12-well or 96-well plates in standard cell culture media. One day later, cells were infected with the gene therapy vector HDAd-LacZ (a helper-dependent adenoviral vector expressing beta-galactosidase (LacZ) under the control of the constitutive CMV promoter) at different multiplicities of infections (MOIs; virus particles per cells seeded) mixed with different amounts/concentrations of the corticosteroids triamcinolone acetonide (TAC; TriamHEXAL®, Hexal AG, Holzkirchen, Germany), betamethasone (Celestan®, MSD, Kenilworth, NJ, USA), or dexamethasone (Lipotalon®, Recordati, Milan, Italy). HDAd-LacZ was produced by GeneQuine Biotherapeutics GmbH (HDAd-LacZ originally sourced from Baylor College of Medicine, USA). In an experiment evaluating different timing or administration of the corticosteroid relative to administration of the HDAs-LacZ, cells were either pre-treated with TAC 3 hours prior to infection with HDAd-LacZ (PRE), TAC treatment and HDAd-LacZ infection was done simultaneously as described above (SIMULTANEOUS), or cells were treated with TAC 3 hours post infection with HDAd-LacZ (POST). One day later, supernatants were aspirated and cell monolayers were stained for LacZ expression using the X-Gal staining kit according to manufacturer's manual (OZ Bioscience, Marseille, France). Macroscopic and microscopic (at 4× or 10× magnification) photos of the stained monolayers were taken (blue staining indicates LacZ expression). A preliminary measure of intensity of the staining was semi-quantitatively measured using ImageJ software by converting the images to 8-bit grayscale and drawing regions of interest around the areas to be measured. The mean intensity values (on a scale of 0-255; 0 being black and 255 being white) were subtracted from 255, divided by 255 and multiplied by 100, i.e. reported values were on a scale of 0-100 (0 being white and 100 being black) where higher values indicate more intense (darker) staining.

rat knee joint = test: Synovial/periarticular inflammation in rat knee joint after intraarticular HDAd-LacZ with or without TAC; assay type: in vivo; conditions: coadministration of 0.06 mg TAC with HDAd-LacZ
Method: Rats obtained from Envigo (Indianapolis, IN) were housed in polycarbonate cages, 4 animals per cage. After 4 days acclimatization, on study day 0, animals (mean weight of 310 g) were randomized into groups by bodyweight, 6 animals per group. Following randomization, test article administration was performed by intraarticular injection of 50 μL/joint. In respective groups, animals were treated with: 5E7 VP HDAd-LacZ, 5E8 VP HDAd-LacZ, 5E9 VP HDAd-LacZ, 5E10 VP HDAd-LacZ, 5E7 VP HDAd-LacZ+0.06 mg TAC, 5E8 VP HDAd-LacZ+0.06 mg TAC, 5E9 VP HDAd-LacZ+0.06 mg TAC, 5E10 VP HDAd-LacZ+0.06 mg TAC or vehicle.
For the groups co-treated with HDAd-LacZ and TAC, TAC suspension was prepared by diluting the commercially available injectable suspension (Kenalog 10, Bristol-Myers Squibb) with isotonic saline solution and added to the HDAd-LacZ preparation (i.e. the injection volume of 50 μL of the test article+TAC mixture contained 0.06 mg TAC).
At necropsy on study day 4, the rats were anesthetized with isoflurane. […]
The tissues were evaluated by the investigator microscopically for inflammation and X-gal staining in a blinded manner. The approximate lengths of the medial and lateral synovia were measured using an ocular micrometer. The lengths of the X-gal-stained areas were measured, and the length of staining relative to the total length of the area (%) was determined. […]

Row | SMILES | concentration at which enhancement of HDAd-mediated LacZ expression started (HEK293 cells) | HDAd-LacZ mediated inflammation (synovial/periarticular) (rat knee joint)
1 | CC1(C)O[C@@H]2C[C@H]3[C@@H]4CCC5=CC(=O)C=C[C@]5(C)[C@@]4(F)[C@@H](O)C[C@]3(C)[C@]2(C(=O)CO)O1 [TAC, triamcinolone acetonide] | 0.18 ng/mL | reduced
2 | C[C@H]1C[C@H]2[C@@H]3CCC4=CC(=O)C=C[C@]4(C)[C@@]3(F)[C@@H](O)C[C@]2(C)[C@@]1(O)C(=O)CO [betamethasone] | 3.9 ng/mL | 
3 | C[C@@H]1C[C@H]2[C@@H]3CCC4=CC(=O)C=C[C@]4(C)[C@@]3(F)[C@@H](O)C[C@]2(C)[C@@]1(O)C(=O)CO [dexamethasone] | 3.9 ng/mL | 

Source: US20260174905A1, “COMPOSITIONS AND METHODS FOR IMPROVED ADENOVIRAL-BASED GENE THERAPY UTILIZING CORT[…]” (Pacira Therapeutics, Inc., priority 2023, published 2026)
